Assay results published in PubChem BioAssay AID330 (DTP/NCI, 2004).
“And” between values parts separate entries of the source, which are not always exact repeats. Equal entries are not always repeated. Inconclusive results and toxic doses are left out. Rule for the calls: active = survival T/C of 150% or more; inactive = T/C below 125% in these data.

Tested on: P388 leukemia ip, CD2F1 mice, survival T/C
Experiment: NCI In Vivo Anticancer Drug Screen. Data for tumor model P388 Leukemia (intraperitoneal) in CD2F1 (CDF1) mice
Conditions: endpoint: median survival time, higher = longer survival
Summary of the method: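 Mice carrying the transplanted tumor received test compound or vehicle. Survival was recorded in each group, and the value is the treated-group measurement divided by that of the vehicle-treated control group.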

[1] = dose: 25.0 mg/kg/injection, schedule: Q01DX009 (ip), vehicle: saline with Tween-80
[2] = dose: 50.0 mg/kg/injection, schedule: Q01DX009 (ip), vehicle: saline with Tween-80
[3] = dose: 100.0 mg/kg/injection, schedule: Q01DX009 (ip), vehicle: saline with Tween-80
[4] = dose: 200.0 mg/kg/injection, schedule: Q01DX009 (ip), vehicle: saline with Tween-80
[5] = dose: 60.0 mg/kg/injection, schedule: Q01DX005 (ip), vehicle: saline with Tween-80
[6] = dose: 120.0 mg/kg/injection, schedule: Q01DX005 (ip), vehicle: saline with Tween-80
[7] = dose: 400.0 mg/kg/injection, schedule: Q01DX009 (ip), vehicle: saline with Tween-80
[8] = dose: 50.0 mg/kg/injection, schedule: Q01DX005 (ip), vehicle: saline with Tween-80
[9] = dose: 100.0 mg/kg/injection, schedule: Q01DX005 (ip), vehicle: saline with Tween-80
[10] = dose: 200.0 mg/kg/injection, schedule: Q01DX005 (ip), vehicle: saline with Tween-80
[11] = dose: 50.0 mg/kg/injection, schedule: Q01DX009 (ip), vehicle: saline
[12] = dose: 12.5 mg/kg/injection, schedule: Q01DX009 (ip), vehicle: saline with Tween-80
[13] = dose: 50.0 mg/kg/injection, schedule: Q01DX005 (ip), vehicle: saline
[14] = dose: 100.0 mg/kg/injection, schedule: Q01DX009 (ip), vehicle: saline
[15] = dose: 200.0 mg/kg/injection, schedule: Q01DX009 (ip), vehicle: saline

Measured: T/C

CC(=O)c1ccc(NC(O)C(Cl)(Cl)Cl)cc1 (stereo not given)
inactive: [1] 99 % of control | [2] 96 % of control | [3] 103 % of control | [4] 107 % of control

CN(C)c1ccc(C=C2C(=O)NC(=O)NC2=O)cc1
inactive: [1] 118 % of control | [2] 113 % of control | [3] 116 % of control | [4] 106 % of control

Cc1ccc2c(c1)C1(C)OC(C=CC1=O)O2 (stereo not given)
inactive: dose: 25.0 mg/kg/injection, schedule: Q04DX003 (ip), vehicle: Klucel (hydroxypropylcellulose) (HPC) 99 % of control and 119 % of control | dose: 50.0 mg/kg/injection, schedule: Q04DX003 (ip), vehicle: Klucel (hydroxypropylcellulose) (HPC) 98 % of control | dose: 100.0 mg/kg/injection, schedule: Q04DX003 (ip), vehicle: Klucel (hydroxypropylcellulose) (HPC) 123 % of control and 97 % of control | dose: 200.0 mg/kg/injection, schedule: Q04DX003 (ip), vehicle: Klucel (hydroxypropylcellulose) (HPC) 113 % of control

CC(C)(C)C(=O)Nc1c(Cl)c(C2CC2)nn1-c1ccccc1
inactive: [5] 100 % of control | [6] 102 % of control | dose: 240.0 mg/kg/injection, schedule: Q01DX005 (ip), vehicle: saline with Tween-80 90 % of control

c1ccc(-c2ccccc2C2=NC2)c(C2=NC2)c1
inactive: dose: 25.0 mg/kg/injection, schedule: Q04DX002 (ip), vehicle: saline with Tween-80 99 % of control | dose: 50.0 mg/kg/injection, schedule: Q04DX002 (ip), vehicle: saline with Tween-80 100 % of control | dose: 100.0 mg/kg/injection, schedule: Q04DX002 (ip), vehicle: saline with Tween-80 99 % of control and 94 % of control

O=C1/C(=C/c2ccccc2[N+](=O)[O-])Cc2ccccc21
inactive: [2] 103 % of control | [3] 94 % of control | [4] 103 % of control | [7] 97 % of control

CCCCCCCCCCCCOC(=O)/C=C\C(=O)NC(N)=O
inactive: dose: 100.0 mg/kg/injection, schedule: Q04DX002 (ip), vehicle: Klucel (hydroxypropylcellulose) (HPC) 117 % of control | dose: 200.0 mg/kg/injection, schedule: Q04DX002 (ip), vehicle: Klucel (hydroxypropylcellulose) (HPC) 123 % of control

COC(=O)C1=CC(=O)N2CCN=C2S1
inactive: [8] 103 % of control | [9] 100 % of control | [10] 90 % of control

CCN(CC)CCOC(=O)Nc1cc(C)cc(C)c1
inactive: [5] 94 % of control | [6] 91 % of control

CCOC(=O)c1ccc(NC(=NC)c2ccccc2)cc1
inactive: [2] 108 % of control | [3] 105 % of control | [4] 97 % of control

c1ccc2c(c1)CCc1c-2n[nH]c1-c1[nH]nc2c1CCc1ccccc1-2
inactive: dose: 60.0 mg/kg/injection, schedule: Q01DX005 (ip), vehicle: Klucel (hydroxypropylcellulose) (HPC) 99 % of control | dose: 120.0 mg/kg/injection, schedule: Q01DX005 (ip), vehicle: Klucel (hydroxypropylcellulose) (HPC) 89 % of control | dose: 240.0 mg/kg/injection, schedule: Q01DX005 (ip), vehicle: Klucel (hydroxypropylcellulose) (HPC) 88 % of control

Cc1ccc([N+](=O)[O-])cc1NC(=O)COc1cc(Cl)c(Cl)cc1Cl
inactive: dose: 100.0 mg/kg/injection, schedule: Q04DX003 (ip), vehicle: saline with Tween-80 90 % of control | dose: 200.0 mg/kg/injection, schedule: Q04DX003 (ip), vehicle: saline with Tween-80 90 % of control | dose: 400.0 mg/kg/injection, schedule: Q04DX003 (ip), vehicle: saline with Tween-80 95 % of control

Nc1cccc2nccn12
inactive: dose: 12.5 mg/kg/injection, schedule: Q01DX009 (ip), vehicle: saline 105 % of control | dose: 25.0 mg/kg/injection, schedule: Q01DX009 (ip), vehicle: saline 102 % of control | [11] 104 % of control and 95 % of control

CC1=NN(C(=O)NS(=O)(=O)c2ccc(CCNC(=O)c3nccnc3N)cc2)CC1
inactive: [8] 96 % of control | [9] 105 % of control | [10] 105 % of control

CCOC(=O)C1=NN(c2ccccc2)C(=O)C1c1ccccc1 (stereo not given)
inactive: [2] 90 % of control | [3] 93 % of control | [4] 107 % of control

O=C1CSC(c2c(F)cccc2Cl)N1c1cnccn1 (stereo not given)
inactive: dose: 25.0 mg/kg/injection, schedule: Q01DX005 (ip), vehicle: Klucel (hydroxypropylcellulose) (HPC) 99 % of control | dose: 50.0 mg/kg/injection, schedule: Q01DX005 (ip), vehicle: Klucel (hydroxypropylcellulose) (HPC) 102 % of control | dose: 100.0 mg/kg/injection, schedule: Q01DX005 (ip), vehicle: Klucel (hydroxypropylcellulose) (HPC) 101 % of control | dose: 200.0 mg/kg/injection, schedule: Q01DX005 (ip), vehicle: Klucel (hydroxypropylcellulose) (HPC) 106 % of control

CC(=O)C(C)C(C)=O
inactive: dose: 6.25 mg/kg/injection, schedule: Q01DX009 (ip), vehicle: saline with Tween-80 97 % of control | [12] 93 % of control | [1] 100 % of control | [2] 107 % of control | [3] 108 % of control | [4] 103 % of control | [7] 110 % of control

CCCC(NC(N)=O)C(CCC)NC(N)=O (stereo not given)
inactive: [2] 102 % of control

CC(=O)Oc1cc2c(C)c3ccccc3cc2c2ccccc12
inactive: dose: 75.0 mg/kg/injection, schedule: Q01DX001 (ip), vehicle: Klucel (hydroxypropylcellulose) (HPC) 102 % of control | dose: 150.0 mg/kg/injection, schedule: Q01DX001 (ip), vehicle: Klucel (hydroxypropylcellulose) (HPC) 102 % of control | dose: 300.0 mg/kg/injection, schedule: Q01DX001 (ip), vehicle: Klucel (hydroxypropylcellulose) (HPC) 100 % of control

CC1(OC(=O)c2ccccc2)CC2(CCCCC2)N=N1 (stereo not given)
inactive: [12] 113 % of control | [1] 105 % of control | [2] 112 % of control | [3] 107 % of control | [4] 105 % of control

CC1CCC[N+](C)([B-](F)(F)F)C1 (stereo not given)
inactive: [13] 100 % of control | dose: 100.0 mg/kg/injection, schedule: Q01DX005 (ip), vehicle: saline 100 % of control

O=[N+]([O-])c1ccc(OC2OCC(O)C(O)C2O)cc1 (stereo not given)
inactive: dose: 60.0 mg/kg/injection, schedule: Q01DX005 (ip), vehicle: saline 97 % of control | dose: 120.0 mg/kg/injection, schedule: Q01DX005 (ip), vehicle: saline 88 % of control | dose: 240.0 mg/kg/injection, schedule: Q01DX005 (ip), vehicle: saline 89 % of control

COCCCN(Cc1cc(OC)c(OC)c(OC)c1)C(=S)Nc1cccc(SC)c1
inactive: [11] 101 % of control | [14] 100 % of control | [15] 99 % of control

O=C(O)CN(CC(=O)O)C1CC1N(CC(=O)O)CC(=O)O (stereo not given)
inactive: [11] 97 % of control | dose: 100.0 mg/kg/injection, schedule: Q01DX001 (ip), vehicle: saline 96 % of control | [14] 100 % of control | dose: 200.0 mg/kg/injection, schedule: Q01DX001 (ip), vehicle: saline 100 % of control | [15] 97 % of control | dose: 400.0 mg/kg/injection, schedule: Q01DX001 (ip), vehicle: saline 97 % of control

OC(CC1CCCCN1)c1ccccc1 (stereo not given)
inactive: dose: 12.5 mg/kg/injection, schedule: Q01DX005 (ip), vehicle: saline 98 % of control | [12] 107 % of control | dose: 25.0 mg/kg/injection, schedule: Q01DX005 (ip), vehicle: saline 105 % of control | [1] 101 % of control | [13] 115 % of control | [2] 100 % of control and 102 % of control

CC1(C)C[C@H](O)[C@H]2O[C@@]2(C)C1
inactive: dose: 100.0 mg/kg/injection, schedule: Q04DX002 (ip), vehicle: saline 95 % of control | dose: 200.0 mg/kg/injection, schedule: Q04DX002 (ip), vehicle: saline 96 % of control | dose: 400.0 mg/kg/injection, schedule: Q04DX002 (ip), vehicle: saline 105 % of control
